US20260022143A1, “Cyclic Peptide Inhibitors of IL-23” (JANSSEN PHARMACEUTICA NV, priority 2022, published 2026)
Positions of bridges follow the written chain, without caps; N, C: chain ends. Non-standard residues stand in square brackets, D forms with d. Residues, ends and D or L forms follow the SMILES beside them. *: point of attachment. Me3N+(CH2)2O(CH2)2O(CH2)2CO = C[N+](C)(C)CCOCCOCCC(=O)*; CH2CH2OCH2CH2OCH2CH2NMe3+ = C[N+](C)(C)CCOCCOCC*; Trp(7-Me) = Cc1cccc2c(C[C@H](N)C(=O)O)c[nH]c12; X28 = CCCCCCCCCCCCCCCC[N+](C)(C)CCc1cn(CC*)nn1; X30 = C[N+](C)(C)CCOCCOCCOCCOCc1cn(CC*)nn1; X73 = C[N+](C)(C)CCOCCOCCNC(=O)CCCCCCCC*; X9 = COCCOCCOCC[N+](C)(C)CCc1cn(CC*)nn1; X89 = COCCOCCOCC[N+](C)(CCOCCOCCOC)CC*; 2Nal = N[C@@H](Cc1ccc2ccccc2c1)C(=O)O; X77 = COCCN1CC[N+]2(CC1)CCN(CC*)CC2; X45 = COCC[N+](C)(C)CCc1cn(CC*)nn1; 3Pal = N[C@@H](Cc1cccnc1)C(=O)O; Lys(Me) = CNCCCC[C@H](N)C(=O)O; X69 = CN(CCOCC[N+](C)(C)C)CC*; X90 = COCCOCCOCC[N+](C)(C)CC*; Pen = CC(C)(S)[C@H](N)C(=O)O; Thp = NC1(C(=O)O)CCOCC1; X42 = O=C(O)CCCCCCCC*; Sar = CNCC(=O)O

Experiment: Exposed Polar Surface Area (EPSA)
Assay type: physicochemical
Conditions: SFC on Chirex 3014 column; sample 1 mM DMSO stock; read-out: EPSA
Procedure, shortened: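 Polarity descriptor in Å² derived from retention time using 8 calibration standards re-run every 20 compounds. Duplicate injections of 1 mM DMSO stock; linear 5–60% modifier gradient (20 mM ammonium formate in MeOH) with CO2 at 4 mL/min, 35 °C, on a Chirex 3014 column.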

Row | Structure (SMILES) | EPSA
1 | CC(=O)N(C)CCCC[C@@H]1NC(=O)[C@H](Cc2c[nH]c3c(C)cccc23)NC(=O)[C@H]([C@@H](C)O)NC(=O)[C@H](CC(=O)N(C)C)NC(=O)[C@@H](NC(=O)CCOCCOCC[N+](C)(C)C)C(C)(C)SSC(C)(C)[C@@H](C(=O)N[C@@H](Cc2ccc(OCCCCCCCCC(=O)O)cc2)C(=O)N[C@@H](Cc2ccc3ccccc3c2)C(=O)NC2(C(=O)N[C@@H](CCCCN(C)C(C)=O)C(=O)N[C@@H](CC(N)=O)C(=O)N[C@@H](Cc3cccnc3)C(=O)N(C)CC(=O)N(C)C)CCOCC2)NC1=O [compound 236, cPEG3aCO-Pen(3)-N(N(Me)2)-T-7MeW-K(NMeAc)-Pen(3)-Y(C9OH)-2Nal-THP-K(NMeAc)-N-3Pya-Sar-CON(Me)2] ({Me3N+(CH2)2O(CH2)2O(CH2)2CO}-[Pen]D(NMe2)T[Trp(7-Me)][Lys(Me)](Ac)[Pen]Y(X42)[2Nal][Thp][Lys(Me)](Ac)N[3Pal][Sar]-NMe2; disulfide 1-6) | 159 A^2
2 | CC(=O)N(C)CCCC[C@@H]1NC(=O)[C@H](Cc2c[nH]c3c(C)cccc23)NC(=O)[C@H]([C@@H](C)O)NC(=O)[C@H](CC(=O)N(C)C)NC(=O)[C@@H](NC(=O)CCOCCOCC[N+](C)(C)C)C(C)(C)SSC(C)(C)[C@@H](C(=O)N[C@@H](Cc2ccc(OCCN(C)CCOCC[N+](C)(C)C)cc2)C(=O)N[C@@H](Cc2ccc3ccccc3c2)C(=O)NC2(C(=O)N[C@@H](CCCCN(C)C(C)=O)C(=O)N[C@@H](CC(N)=O)C(=O)N[C@@H](Cc3cccnc3)C(=O)N(C)CC(=O)N(C)C)CCOCC2)NC1=O [compound 237, cPEG3aCO-Pen(3)-N(N(Me)2)-T-7MeW-K(NMeAc)-Pen(3)-AEF(NMePEG2a)-2Nal-THP-K(NMeAc)-N-3Pya-Sar-CON(Me)2] ({Me3N+(CH2)2O(CH2)2O(CH2)2CO}-[Pen]D(NMe2)T[Trp(7-Me)][Lys(Me)](Ac)[Pen]Y(X69)[2Nal][Thp][Lys(Me)](Ac)N[3Pal][Sar]-NMe2; disulfide 1-6) | 140 A^2
3 | COCCOCCOCC[N+](C)(C)CCOc1ccc(C[C@H](NC(=O)[C@H]2NC(=O)[C@H](CCCCN(C)C(C)=O)NC(=O)[C@H](Cc3c[nH]c4c(C)cccc34)NC(=O)[C@H]([C@@H](C)O)NC(=O)[C@H](CC(=O)N(C)C)NC(=O)[C@@H](NC(=O)CCOCCOCC[N+](C)(C)C)C(C)(C)SSC2(C)C)C(=O)N[C@@H](Cc2ccc3ccccc3c2)C(=O)NC2(C(=O)N[C@@H](CCCCN(C)C(C)=O)C(=O)N[C@@H](CC(N)=O)C(=O)N[C@@H](Cc3cccnc3)C(=O)N(C)CC(=O)N(C)C)CCOCC2)cc1 [compound 239, cPEG3aCO-Pen(3)-N(N(Me)2)-T-7MeW-K(NMeAc)-pen(3)-AEF(NMe2mPEG3)-2Nal-THP-K(NMeAc)-N-3Pya-Sar-CON(Me)2] ({Me3N+(CH2)2O(CH2)2O(CH2)2CO}-[Pen]D(NMe2)T[Trp(7-Me)][Lys(Me)](Ac)[Pen]Y(X90)[2Nal][Thp][Lys(Me)](Ac)N[3Pal][Sar]-NMe2; disulfide 1-6) | 138 A^2
4 | COCCOCCOCC[N+](C)(CCOCCOCCOC)CCOc1ccc(C[C@H](NC(=O)[C@H]2NC(=O)[C@H](CCCCN(C)C(C)=O)NC(=O)[C@H](Cc3c[nH]c4c(C)cccc34)NC(=O)[C@H]([C@@H](C)O)NC(=O)[C@H](CC(=O)N(C)C)NC(=O)[C@@H](NC(=O)CCOCCOCC[N+](C)(C)C)C(C)(C)SSC2(C)C)C(=O)N[C@@H](Cc2ccc3ccccc3c2)C(=O)NC2(C(=O)N[C@@H](CCCCN(C)C(C)=O)C(=O)N[C@@H](CC(N)=O)C(=O)N[C@@H](Cc3cccnc3)C(=O)N(C)CC(=O)N(C)C)CCOCC2)cc1 [compound 241, cPEG3aCO-Pen(3)-N(N(Me)2)-T-7MeW-K(NMeAc)-Pen(3)-AEF(NMeBismPEG3)-2Nal-THP-K(NMeAc)-N-3Pya-Sar-CON(Me)2] ({Me3N+(CH2)2O(CH2)2O(CH2)2CO}-[Pen]D(NMe2)T[Trp(7-Me)][Lys(Me)](Ac)[Pen]Y(X89)[2Nal][Thp][Lys(Me)](Ac)N[3Pal][Sar]-NMe2; disulfide 1-6) | 135 A^2
5 | CC(=O)NCCCC[C@@H]1NC(=O)[C@H](Cc2c[nH]c3c(C)cccc23)NC(=O)[C@H]([C@@H](C)O)NC(=O)[C@H](CC(=O)N(C)C)NC(=O)[C@@H](NC(=O)CCOCCOCC[N+](C)(C)C)C(C)(C)SSC(C)(C)[C@@H](C(=O)N[C@@H](Cc2ccc(OCCOCCOCC[N+](C)(C)C)cc2)C(=O)N[C@@H](Cc2ccc3ccccc3c2)C(=O)NC2(C(=O)N[C@@H](CCCCN(C)C(C)=O)C(=O)N[C@@H](CC(N)=O)C(=O)N[C@@H](Cc3cccnc3)C(=O)N(C)CC(=O)N(C)C)CCOCC2)NC1=O [compound 243, cPEG3aCO-Pen(3)-N(N(Me)2)-T-7MeW-K(Ac)-Pen(3)-APEG3F-2Nal-THP-K(NMeAc)-N-3Pya-Sar-CON(Me)2] ({Me3N+(CH2)2O(CH2)2O(CH2)2CO}-[Pen]D(NMe2)T[Trp(7-Me)]K(Ac)[Pen]Y(CH2CH2OCH2CH2OCH2CH2NMe3+)[2Nal][Thp][Lys(Me)](Ac)N[3Pal][Sar]-NMe2; disulfide 1-6) | 142 A^2
6 | COCC[N+](C)(C)CCc1cn(CCOc2ccc(C[C@H](NC(=O)[C@H]3NC(=O)[C@H](CCCCNC(C)=O)NC(=O)[C@H](Cc4c[nH]c5c(C)cccc45)NC(=O)[C@H]([C@@H](C)O)NC(=O)[C@H](CC(N)=O)NC(=O)[C@@H](NC(C)=O)C(C)(C)SSC3(C)C)C(=O)N[C@@H](Cc3ccc4ccccc4c3)C(=O)NC3(C(=O)N[C@@H](CCCCNC(C)=O)C(=O)N[C@@H](CC(N)=O)C(=O)N[C@@H](Cc4cccnc4)C(=O)N(C)CC(N)=O)CCOCC3)cc2)nn1 [compound 249] (Ac-[Pen]NT[Trp(7-Me)]K(Ac)[Pen]Y(X45)[2Nal][Thp]K(Ac)N[3Pal][Sar]-NH2; disulfide 1-6 (inferred)) | 147 A^2
7 | CC(=O)NCCCC[C@@H]1NC(=O)[C@H](Cc2c[nH]c3c(C)cccc23)NC(=O)[C@H]([C@@H](C)O)NC(=O)[C@H](CC(N)=O)NC(=O)[C@@H](NC(C)=O)C(C)(C)SSC(C)(C)[C@@H](C(=O)N[C@@H](Cc2ccc(OCCn3cc(COCCOCCOCCOCC[N+](C)(C)C)nn3)cc2)C(=O)N[C@@H](Cc2ccc3ccccc3c2)C(=O)NC2(C(=O)N[C@@H](CCCCNC(C)=O)C(=O)N[C@@H](CC(N)=O)C(=O)N[C@@H](Cc3cccnc3)C(=O)N(C)CC(N)=O)CCOCC2)NC1=O [compound 252] (Ac-[Pen]NT[Trp(7-Me)]K(Ac)[Pen]Y(X30)[2Nal][Thp]K(Ac)N[3Pal][Sar]-NH2; disulfide 1-6) | 148 A^2
8 | CC(=O)N(C)CCCC[C@@H]1NC(=O)[C@H](Cc2c[nH]c3c(C)cccc23)NC(=O)[C@H]([C@@H](C)O)NC(=O)[C@H](CC(=O)N(C)C)NC(=O)[C@@H](NC(=O)CCOCCOCC[N+](C)(C)C)C(C)(C)SSC(C)(C)[C@@H](C(=O)N[C@@H](Cc2ccc(OCCCCCCCCC(=O)NCCOCCOCC[N+](C)(C)C)cc2)C(=O)N[C@@H](Cc2ccc3ccccc3c2)C(=O)NC2(C(=O)N[C@@H](CCCCN(C)C(C)=O)C(=O)N[C@@H](CC(N)=O)C(=O)N[C@@H](Cc3cccnc3)C(=O)N(C)CC(=O)N(C)C)CCOCC2)NC1=O [compound 254, cPEG3aCO-Pen(3)-N(N(Me)2)-T-7MeW-K(NMeAc)-Pen(3)-YC8CO(NHPEG3a)-2Nal-THP-K(NMeAc)-N-3Pya-Sar-CON(Me)2] ({Me3N+(CH2)2O(CH2)2O(CH2)2CO}-[Pen]D(NMe2)T[Trp(7-Me)][Lys(Me)](Ac)[Pen]Y(X73)[2Nal][Thp][Lys(Me)](Ac)N[3Pal][Sar]-NMe2; disulfide 1-6) | 144 A^2
9 | CCCCCCCCCCCCCCCC[N+](C)(C)CCc1cn(CCOc2ccc(C[C@H](NC(=O)[C@H]3NC(=O)[C@H](CCCCNC(C)=O)NC(=O)[C@H](Cc4c[nH]c5c(C)cccc45)NC(=O)[C@H]([C@@H](C)O)NC(=O)[C@H](CC(N)=O)NC(=O)[C@@H](NC(C)=O)C(C)(C)SSC3(C)C)C(=O)N[C@@H](Cc3ccc4ccccc4c3)C(=O)NC3(C(=O)N[C@@H](CCCCNC(C)=O)C(=O)N[C@@H](CC(N)=O)C(=O)N[C@@H](Cc4cccnc4)C(=O)N(C)CC(N)=O)CCOCC3)cc2)nn1 [compound 259] (Ac-[Pen]NT[Trp(7-Me)]K(Ac)[Pen]Y(X28)[2Nal][Thp]K(Ac)N[3Pal][Sar]-NH2; disulfide 1-6) | 149 A^2
10 | COCCOCCOCC[N+](C)(C)CCc1cn(CCOc2ccc(C[C@H](NC(=O)[C@H]3NC(=O)[C@H](CCCCNC(C)=O)NC(=O)[C@H](Cc4c[nH]c5c(C)cccc45)NC(=O)[C@H]([C@@H](C)O)NC(=O)[C@H](CC(N)=O)NC(=O)[C@@H](NC(C)=O)C(C)(C)SSC3(C)C)C(=O)N[C@@H](Cc3ccc4ccccc4c3)C(=O)NC3(C(=O)N[C@@H](CCCCNC(C)=O)C(=O)N[C@@H](CC(N)=O)C(=O)N[C@@H](Cc4cccnc4)C(=O)N(C)CC(N)=O)CCOCC3)cc2)nn1 [compound 260] (Ac-[Pen]NT[Trp(7-Me)]K(Ac)[Pen]Y(X9)[2Nal][Thp]K(Ac)N[3Pal][Sar]-NH2; disulfide 1-6) | 147 A^2
11 | COCCN1CC[N+]2(CC1)CCN(CCOc1ccc(C[C@H](NC(=O)[C@H]3NC(=O)[C@H](CCCCN(C)C(C)=O)NC(=O)[C@H](Cc4c[nH]c5c(C)cccc45)NC(=O)[C@H]([C@@H](C)O)NC(=O)[C@H](CC(=O)N(C)C)NC(=O)[C@@H](NC(=O)CCOCCOCC[N+](C)(C)C)C(C)(C)SSC3(C)C)C(=O)N[C@@H](Cc3ccc4ccccc4c3)C(=O)NC3(C(=O)N[C@@H](CCCCN(C)C(C)=O)C(=O)N[C@@H](CC(N)=O)C(=O)N[C@@H](Cc4cccnc4)C(=O)N(C)CC(=O)N(C)C)CCOCC3)cc1)CC2 [compound 262, cPEG3aCO-Pen(3)-N(N(Me)2)-T-7MeW-K(NMeAc)-Pen(3)-MTASF-2Nal-THP-K(NMeAc)-N-3Pya-Sar-CON(Me)2] ({Me3N+(CH2)2O(CH2)2O(CH2)2CO}-[Pen]D(NMe2)T[Trp(7-Me)][Lys(Me)](Ac)[Pen]Y(X77)[2Nal][Thp][Lys(Me)](Ac)N[3Pal][Sar]-NMe2; disulfide 1-6) | 145 A^2
